Results reported in patent US20230365563A1, “QUINAZOLINE COMPOUND AND APPLICATION THEREOF” (SHANGHAI PHARMACEUTICALS HOLDING CO., LTD., priority 2020, published 2023).
Counter-ions that a name gives are not always drawn.

Assays:
KRAS_G12D and cRAF = biological target: T1, KRAS_G12D and cRAF (Homo sapiens, UniProt P01116, G12D); experiment: Inhibition of KRAS_G12D/cRAF binding (Cisbio binding kit, 665/615 ratio), Effect Embodiment B; details: read-out: GTP-KRAS-G12D:CRAF IC50
T1 construct: purchased
Summary of the method: (§1)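 Compounds underwent 3-fold dilution from their storage solutions (11 points), were transferred to assay wells in duplicate with DMSO held at 1% final, and were briefly centrifuged.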

KRAS-G12D and SOS1 = biological target: T2, KRAS-G12D and SOS1 (Homo sapiens, UniProt P01116, G12D); experiment: Inhibition of KRAS-G12D/SOS1 binding (Cisbio binding kit, 665/615 ratio), Effect Embodiment A; details: read-out: GTP-KRAS-G12D:SOS1 IC50
T2 construct: purchased
Summary of the method: as §1

KRAS_WT and SOS1 = biological target: T3, KRAS_WT and SOS1 (Homo sapiens, UniProt P01116); experiment: Inhibition of KRAS_WT/SOS1 binding (Cisbio binding kit, 665/615 ratio), Effect Embodiment C; details: read-out: GTP-KRAS-WT:SOS1 IC50
T3 construct: purchased
Description: The inhibitory ability of small molecule compounds on the binding activity of KRAS_WT and SOS1 was examined by a drug screening system based on the combination of KRAS_WT and SOS1.
Similarly, the first dilution point of the compound to be tested was its storage solution, and the solution was 3-fold diluted, with 11+0 points of dilution. Echo was used to transfer 0.2 μL gradient diluted solution of the compounds into a 384-well plate, with 2 duplicated wells for each compound, and the final concentration of DMSO was 1%. The solution was centrifuged for 1 min at 1000 rpm/min.
IC50 of the compounds was fitted by Graphpad Prism 8 nonlinear regression equation: […]
The IC50 (half inhibitory concentration) of the compound was obtained by using the following nonlinear fitting formula: […]

T1 sequence (P01116 1-188 isoform P01116-2 G12D): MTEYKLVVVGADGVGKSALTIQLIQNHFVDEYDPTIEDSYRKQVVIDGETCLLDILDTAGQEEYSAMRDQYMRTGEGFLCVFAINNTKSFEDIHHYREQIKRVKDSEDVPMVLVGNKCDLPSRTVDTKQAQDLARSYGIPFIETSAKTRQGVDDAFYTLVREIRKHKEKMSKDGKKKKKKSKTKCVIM
T2 sequence (P01116 1-188 isoform P01116-2 G12D): as above
T3 sequence (P01116 1-188 isoform P01116-2): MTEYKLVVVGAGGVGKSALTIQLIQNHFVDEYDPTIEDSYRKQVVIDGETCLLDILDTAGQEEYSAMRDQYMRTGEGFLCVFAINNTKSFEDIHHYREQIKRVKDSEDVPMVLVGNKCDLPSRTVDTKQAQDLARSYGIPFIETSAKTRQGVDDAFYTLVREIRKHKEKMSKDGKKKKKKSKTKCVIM

Row | SMILES | IC50 (KRAS_G12D and cRAF) | IC50 (KRAS-G12D and SOS1) | IC50 (KRAS_WT and SOS1)
1 | CN(C)C1CN(c2nc(N3CC4CC(C3)N4)c3cc(Cl)c(-c4cc(O)cc5ccccc45)c(F)c3n2)C1 (single isomer, unassigned) [Compound 25, 4-((7S or 7R)-4-(3,6-diazabicyclo[3.1.1]heptan-3-yl)-6-chloro-2-(3-(dimethylamino)azetidin-1-yl)-8-fluoroquinazolin-7-yl)naphthalen-2-ol] | 4380 nM | 294 nM | 2550 nM
2 | Oc1cc(-c2c(Cl)cc3c(N4CC5CCC(C4)N5)nc(OCCCN4CCCCC4)nc3c2F)c2ccccc2c1 (single isomer, unassigned) [Compound 66a, 4-((S or R)-4-((1R,5S)-3,8-diazabicyclo[3.2.1]octan-3-yl)-6-chloro-8-fluoro-2-(3-(piperidin-1-yl)propoxy)quinazolin-7-yl)naphthalen-2-ol] | 139 nM | 38.3 nM | 1020 nM
3 | CC1OCCN(CCCOc2nc(N3CC4CCC(C3)N4)c3cc(Cl)c(-c4cc(O)cc5ccccc45)c(F)c3n2)C1C (single isomer, unassigned) [Compound 265c, 4-((R or S)-4-((1R,5S)-3,8-diazabicyclo[3.2.1]octan-3-yl)-6-chloro-2-(3-((2S or 2R, 3S or 3R)-(2,3-dimethylmorpholinyl)propoxy)-8-fluoroquinazolin-7-yl)naphthalen-2-ol diformate] | 135 nM | 49.8 nM | 1280 nM
4 | Oc1cc(-c2c(Cl)cc3c(N4CC5CCC(C4)N5)nc(OCCN4C5CC6CC4CC(C5)O6)nc3c2F)c2ccccc2c1 (single isomer, unassigned) [Compound 238, (S or R)-4-(2-(2-((1R,3R,5R,7R)-2-oxa-6-azadamantan-6-yl)ethoxy)-4-((1R,5S)-3,8-diazabicyclo[3.2.1]octan-3-yl)-6-chloro-8-fluoroquinazolin-7-yl)naphthalen-2-ol formate] | 155 nM | 43.3 nM | 3080 nM
5 | CO[C@H]1C[C@H]2CC[C@@H](C1)N2C[C@@H](C)COc1nc(N2CC3CCC(C2)N3)c2cc(Cl)c(-c3cc(O)cc4ccccc34)c(F)c2n1 (single isomer, unassigned) [Compound 223, 4-((S or R)-4-((1R,5S)-3,8-diazabicyclo[3.2.1]octan-3-yl)-6-chloro-8-fluoro-2-((R)-3-((1R,3R,5S)-3-methoxy-8-azabicyclo[3.2.1]octan-8-yl)-2-methylpropoxy)quinazolin-7-yl)naphthalen-2-ol diformate] | 15.6 nM | 17.5 nM | 1700 nM
6 | CN1CCC2(C1)CN(c1nc(N3CC4CCC(C3)N4)c3cc(Cl)c(-c4cc(O)cc5ccccc45)c(F)c3n1)C2 (single isomer, unassigned) [Compound 61a, 4-((S or R)-4-((1R,5S)-3,8-diazabicyclo[3.2.1]octan-3-yl)-6-chloro-8-fluoro-2-(6-methyl-2,6-diazaspiro[3.4]octan-2-yl)quinazolin-7-yl)naphthalen-2-ol] | 1600 nM | 230 nM | 68300 nM
7 | CCc1cccc2cccc(-c3c(F)cc4c(N5CC6CCC(C5)N6)nc(OC[C@@]56CCCN5C[C@H](F)C6)nc4c3F)c12 (single isomer, unassigned) [Compound 281a, (S or R)-4-((1R,5S)-3,8-diazacyclo[3.2.1]octan-3-yl)-7-(8-ethylnaphthalen-1-yl)-6,8-difluoro-2-((2R,7aS)-2-fluorotetrahydro-1H-pyrrolin-7a(5H)-yl)methoxy)quinazoline dihydrochloride] | 20.3 nM | 17.8 nM | 564 nM
8 | Oc1cc(-c2c(Cl)cc3c(N4CC5CCC(C4)N5)nc(OCC4(CN5C6CCC5COC6)CCC4)nc3c2F)c2ccccc2c1 (single isomer, unassigned) [Compound 173, (4R or S)-4-(2-((1-((3-oxa-8-azabicyclo[3.2.1]octan-8-yl)methyl)cyclobutyl)methoxy)-4-((1R,5S)-3,8-diazabicyclo[3.2.1]octan-3-yl)-6-chloro-8-fluoroquinazolin-7-yl)naphthalen-2-ol dihydrochloride] | 37.9 nM | 14.8 nM | 251 nM
9 | CN(CCCCN1CCN(CCCCN)CC1)CCCOc1nc(N2CC3CCC(C2)N3)c2cc(Cl)c(-c3cc(O)cc4ccccc34)c(F)c2n1 (single isomer, unassigned) [Compound 111, (S or R) 4-(2-(3-((4-(4-aminobutyl)piperazin-1-yl)butyl)(methyl)amino)propoxy)-4-((1R,5S)-3,8-diazabicyclo[3.2.1]octan-3-yl)-6-chloro-8-fluoroquinazolin-7-yl)naphthalen-2-ol pentahydrochloride] | 107 nM | 22.4 nM | 1110 nM
10 | CN1C[C@@H]2C[C@@H]2[C@H]1COc1nc(N2CC3CCC(C2)N3)c2cnc(-c3cc(O)cc4ccccc34)c(F)c2n1 [Compound 140, 4-(4-((1R,5S)-3,8-diazabicyclo[3.2.1]octan-3-yl)-8-fluoro-2-((1S,2S,5R)-3-methyl-3-azabicyclo[3.1.0]hexan-2-yl)methoxy)pyridin[4,3-d]pyrimidin-7-yl)naphthalen-2-ol dihydrochloride] | 95.7 nM | 32.8 nM | 1360 nM
11 | Oc1cc(-c2c(Cl)cc3c(N4C[C@H]5CC[C@@H](C4)N5)nc(OCCCN4C[C@H]5C[C@@H]4CO5)nc3c2F)c2ccccc2c1 (single isomer, unassigned) [Compound 169, (R or S)-4-(2-(3-((1R,4R)-2-oxa-5-azabicyclo[2.2.1]heptan-5-yl)propoxy)-4-((1R,5S)-3,8-diazabicyclo[3.2.1]octan-3-yl)-6-chloro-8-fluoroquinazolin-7-yl)naphthalen-2-ol dihydrochloride] | 71.3 nM | 39.2 nM | 1870 nM
12 | CN1CCC[C@H]1COc1nc(N2CC3CCC(C2)N3)c2cc(Cl)c(-c3cc(O)c(F)c4ccccc34)c(F)c2n1 (single isomer, unassigned) [Compound 89a, (S or R)-4-(4-((1R,5S)-3,8-diazabicyclo[3.2.1]octan-3-yl)-6-chloro-8-fluoro-2-(S)-1-methylpyrrolidin-2-yl)methoxy)quinazolin-7-yl)-1-fluoronaphthalen-2-ol hydrochloride] | 110 nM | 47.7 nM | 2190 nM
13 | NCCCOc1nc(N2CC3CCC(C2)N3)c2cc(Cl)c(-c3cc(O)cc4ccccc34)c(F)c2n1 (single isomer, unassigned) [Compound 94, 4-((S or R)-2-(3-aminopropoxy)-4-((1R,5S)-3,8-diazabicyclo[3.2.1]octan-3-yl)-6-chloro-8-fluoroquinazolin-7-yl)naphthalen-2-ol dihydrochloride] | 164 nM | 53.2 nM | 5220 nM
14 | Oc1cc(-c2c(Cl)cc3c(N4CC5CCC(C4)N5)nc(OCCCN4C5CCC4COC5)nc3c2F)c2ccccc2c1 (single isomer, unassigned) [Compound 106, (4S or R)-4-(2-(3-(3-oxa-8-azabicyclo[3.2.1]octan-8-yl)propoxy)-4-((1R,5S)-3,8-diazabicyclo[3.2.1]octan-3-yl)-6-chloro-8-fluoroquinazolin-7-yl)naphthalen-2-ol dihydrochloride] | 158 nM | 39.1 nM | 1770 nM
15 | CN(C)C1CCC(Oc2nc(N3CC4CCC(C3)N4)c3cc(Cl)c(-c4cc(O)cc5ccccc45)c(F)c3n2)C1 (single isomer, unassigned) [Compound 70a, 4-((S or R)-4-((1R,5S)-3,8-diazabicyclo[3.2.1]octan-3-yl)-6-chloro-2-((1S,3R or 1R,3S)-3-(dimethylamino)cyclopentyl)oxy)-8-fluoroquinazolin-7-yl)naphthalen-2-ol dihydrochloride] | 592 nM | 93.9 nM | > 100000 nM
16 | Cc1cccc2cc(O)cc(-c3c(Cl)cc4c(N5CC6CCC(C5)N6)nc(N5CC(N(C)C)C5)nc4c3F)c12 (single isomer, unassigned) [Compound 47a, 4-((S or R)-4-((1R,5S)-3,8-diazabicyclo[3.2.1]octan-3-yl)-6-chloro-2-(3-(dimethylamino)azetidin-1-yl)-8-fluoroquinazolin-7-yl)-5-methylnaphthalen-2-ol] | 824 nM | 208 nM | 5700 nM
17 | Oc1cc(-c2c(Cl)cc3c(N4CC5CCC(C4)N5)nc(OCC(F)CN4CCCC4)nc3c2F)c2ccccc2c1 (single isomer, unassigned) [Compound 109a, 4-((S or R)-4-((1R,5S)-3,8-diazabicyclo[3.2.1]octan-3-yl)-6-chloro-8-fluoro-2-((S or R)-2-fluoro-3-(pyrrolidin-1-yl)propoxy)quinazolin-7-yl)naphthalen-2-ol hydrochloride] | 89.3 nM | 27 nM | 2570 nM
18 | CC(C)N1CC2CCC(C1)N2CCCOc1nc(N2CC3CCC(C2)N3)c2cc(Cl)c(-c3cc(O)cc4ccccc34)c(F)c2n1 (single isomer, unassigned) [Compound 244, 4-((7S or 7R)-4-((1R,5S)-3,8-diazacyclo[3.2.1]octan-3-yl)-6-chloro-8-fluoro-2-(3-(3-isopropyl-3,8-diazacyclo[3.2.1]octan-8-yl)propoxy)quinazolin-7-yl)naphthalen-2-ol diformate] | 260 nM | 48.5 nM | 3340 nM
